As usually defined, the IC50 is the concentration needed to halve the response being measured. The low end stands for greater potency in that assay, the high end for weaker potency in that assay.

Sequence of CSF1R (P07333 20-972, species assumed): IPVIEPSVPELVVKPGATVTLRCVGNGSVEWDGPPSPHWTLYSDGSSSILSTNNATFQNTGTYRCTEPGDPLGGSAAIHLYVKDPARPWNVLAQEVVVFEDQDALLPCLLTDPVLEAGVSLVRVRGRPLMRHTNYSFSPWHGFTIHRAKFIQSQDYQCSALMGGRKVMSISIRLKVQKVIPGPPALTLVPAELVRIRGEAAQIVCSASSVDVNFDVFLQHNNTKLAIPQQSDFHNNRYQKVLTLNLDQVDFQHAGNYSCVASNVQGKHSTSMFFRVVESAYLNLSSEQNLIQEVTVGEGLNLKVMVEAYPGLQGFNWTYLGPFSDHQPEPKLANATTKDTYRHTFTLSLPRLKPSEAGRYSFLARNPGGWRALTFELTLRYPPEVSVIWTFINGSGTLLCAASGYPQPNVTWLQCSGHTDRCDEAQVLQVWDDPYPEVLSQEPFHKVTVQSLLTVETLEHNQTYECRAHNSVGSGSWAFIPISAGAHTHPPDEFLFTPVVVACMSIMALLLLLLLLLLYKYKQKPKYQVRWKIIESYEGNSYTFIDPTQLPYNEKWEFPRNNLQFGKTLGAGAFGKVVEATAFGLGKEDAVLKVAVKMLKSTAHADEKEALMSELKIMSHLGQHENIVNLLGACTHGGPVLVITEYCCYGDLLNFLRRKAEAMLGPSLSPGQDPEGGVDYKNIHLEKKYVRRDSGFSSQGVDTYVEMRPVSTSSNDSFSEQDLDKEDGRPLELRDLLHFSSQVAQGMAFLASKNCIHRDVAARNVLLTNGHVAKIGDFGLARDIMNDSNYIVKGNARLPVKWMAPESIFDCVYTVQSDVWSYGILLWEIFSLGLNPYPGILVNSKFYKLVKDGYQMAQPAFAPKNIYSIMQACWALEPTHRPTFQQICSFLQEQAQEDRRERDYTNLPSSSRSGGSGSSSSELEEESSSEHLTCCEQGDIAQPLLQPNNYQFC

This experiment addresses CSF1R (Homo sapiens, UniProt P07333). Briefly: CSF1R 100 ATP 8 pt kinase assay (Table 6). The format is biochemical. An excerpt:
The following Table 6 provides data indicating FLT3 ITD, D835Y and F691L; c-KIT and CSF1R biochemical and/or cell inhibitory activity for exemplary compounds as described herein.
Take `Cc1ncc(NC(=O)Cc2ccc(-c3cnc4[nH]c(C#CC(C)(C)O)cc4c3)cc2)cc1C(F)(F)F` [Compound P-0220, 2-[4-[2-(3-hydroxy-3-methyl-but-1-ynyl)-1H-pyrrolo[2,3-b]pyridin-5-yl]phenyl]-N-[6-methyl-5-(trifluoromethyl)-3-pyridyl]acetamide]: the IC50 fell in the range of 0.0001 to 10 µM.

As to `COc1ncc(NC(=O)Cc2ccc(-c3cnc4[nH]nc(N)c4c3)cc2)cc1C(F)(F)F` [Compound P-0216, 2-(4-(3-amino-1H-pyrazolo[3,4-b]pyridin-5-yl)phenyl)-N-(6-methoxy-5-(trifluoromethyl)pyridin-3-yl)acetamide], the half-inhibitory concentration (IC50) was 0.0001 to 10 µM.

On to `CCOc1n[nH]c2ncc(-c3ccc(CC(=O)Nc4cnc(OC)c(C(F)(F)F)c4)cc3)cc12` [Compound P-0213, 2-(4-(3-ethoxy-1H-pyrazolo[3,4-b]pyridin-5-yl)phenyl)-N-(6-methoxy-5-(trifluoromethyl)pyridin-3-yl)acetamide], for which the IC50 lay within 0.0001 to 10 µM.

For `COc1ncc(NC(=O)Cc2ccc(-c3cnc4[nH]nc(OC)c4c3)cc2)cc1C(F)(F)F` [Compound P-0212, 2-[4-(3-methoxy-1H-pyrazolo[3,4-b]pyridin-5-yl)phenyl]-N-[6-methoxy-5-(trifluoromethyl)-3-pyridyl]acetamide], the IC50 was in the range of 0.0001 to 10 µM.

Turning to `COc1ncc(NC(=O)Cc2ccc(-c3cnc4[nH]nc(NC(=O)C(F)(F)F)c4c3)cc2)cc1C(F)(F)F` [Compound P-0215, 2,2,2-trifluoro-N-[5-[4-[2-[[6-methoxy-5-(trifluoromethyl)-3-pyridyl]amino]-2-oxo-ethyl]phenyl]-1H-pyrazolo[3,4-b]pyridin-3-yl]acetamide], the IC50 fell in the range of 0.0001 to 10 µM.

Turning to `CCOc1n[nH]c2ncc(-c3ccc(CC(=O)Nc4cnc(C)c(C(F)(F)F)c4)cc3)cc12` [Compound P-0217, 2-[4-(3-ethoxy-1H-pyrazolo[3,4-b]pyridin-5-yl)phenyl]-N-[6-methyl-5-(trifluoromethyl)-3-pyridyl]acetamide], the IC50 was 0.0001 to 10 µM.

For the compound `COc1n[nH]c2ncc(-c3ccc(CC(=O)Nc4cnc(C)c(C(F)(F)F)c4)cc3)cc12` [Compound P-0218, 2-[4-(3-methoxy-1H-pyrazolo[3,4-b]pyridin-5-yl)phenyl]-N-[6-methyl-5-(trifluoromethyl)-3-pyridyl]acetamide], the half-inhibitory concentration (IC50) lay within 0.0001 to 10 µM.

In the case of `COc1ncc(NC(=O)Cc2ccc(-c3cnc4[nH]nc(Cl)c4c3)cc2)cc1C(F)(F)F` [Compound P-0230, 2-[4-(3-chloro-1H-pyrazolo[3,4-b]pyridin-5-yl)phenyl]-N-[6-methoxy-5-(trifluoromethyl)-3-pyridyl]acetamide], the IC50 was in the range of 0.0001 to 10 µM.

(Values after patent US10160747B2, “Compounds and methods for kinase modulation, and indications therefor” (Plexxikon Inc., priority 2016, dated 2018).)
